In ChEMBL document CHEMBL1155914 (Bioorg Med Chem, 2008):

Assays:
[1] = molecular target: T1, Acetylcholinesterase (Electrophorus electricus, UniProt O42275)
Description: Inhibition of Electrophorus electricus AChE by spectrophotometry

[2] = molecular target: Acetylcholinesterase (Homo sapiens, UniProt P22303)
Description: Inhibition of human erythrocyte AChE by Ellman's method

[3] = system: SH-SY5Y; test: Antioxidant activity in human SH-SY5Y cells assessed as decrease in H2O2-induced reactive oxygen species generation at 0.3 uM by fluorescence method; format: functional; set-up: scale not given: the % may be the effect or the level left
[4] = molecular target: Cholinesterase (Homo sapiens, UniProt P06276)
Description: Inhibition of human serum BuChE by Ellman's method

[5] = system: SH-SY5Y; test: cells; conditions: Homo sapiens, read-out: INH
Description: Inhibition of potassium chloride-induced cytosolic calcium levels in human SH-SY5Y cells at 0.3 uM by fluorescence method relative to control

[6] = molecular target: T1, Acetylcholinesterase; remark: listed apart in the source
Description: Inhibition of Electrophorus electricus AChE by Ellman's method

T1 sequence (O42275 whole entry): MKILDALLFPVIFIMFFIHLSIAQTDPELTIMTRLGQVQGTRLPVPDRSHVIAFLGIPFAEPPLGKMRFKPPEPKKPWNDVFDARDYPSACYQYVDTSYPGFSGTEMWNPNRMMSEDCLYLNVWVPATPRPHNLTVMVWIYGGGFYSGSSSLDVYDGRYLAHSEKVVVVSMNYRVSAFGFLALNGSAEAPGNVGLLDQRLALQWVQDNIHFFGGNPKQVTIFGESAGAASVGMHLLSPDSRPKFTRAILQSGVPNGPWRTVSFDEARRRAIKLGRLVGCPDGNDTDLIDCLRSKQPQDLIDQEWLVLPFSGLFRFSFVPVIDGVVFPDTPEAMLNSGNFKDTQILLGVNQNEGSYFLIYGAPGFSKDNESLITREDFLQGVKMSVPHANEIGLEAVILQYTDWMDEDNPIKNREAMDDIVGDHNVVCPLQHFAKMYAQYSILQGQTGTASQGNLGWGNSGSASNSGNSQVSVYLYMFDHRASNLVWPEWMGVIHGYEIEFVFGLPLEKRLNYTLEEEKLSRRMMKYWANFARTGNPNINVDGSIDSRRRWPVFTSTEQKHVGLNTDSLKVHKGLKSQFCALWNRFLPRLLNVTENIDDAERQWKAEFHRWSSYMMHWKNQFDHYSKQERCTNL
Sequence of Acetylcholinesterase (Homo sapiens, UniProt P22303) (P22303 whole entry): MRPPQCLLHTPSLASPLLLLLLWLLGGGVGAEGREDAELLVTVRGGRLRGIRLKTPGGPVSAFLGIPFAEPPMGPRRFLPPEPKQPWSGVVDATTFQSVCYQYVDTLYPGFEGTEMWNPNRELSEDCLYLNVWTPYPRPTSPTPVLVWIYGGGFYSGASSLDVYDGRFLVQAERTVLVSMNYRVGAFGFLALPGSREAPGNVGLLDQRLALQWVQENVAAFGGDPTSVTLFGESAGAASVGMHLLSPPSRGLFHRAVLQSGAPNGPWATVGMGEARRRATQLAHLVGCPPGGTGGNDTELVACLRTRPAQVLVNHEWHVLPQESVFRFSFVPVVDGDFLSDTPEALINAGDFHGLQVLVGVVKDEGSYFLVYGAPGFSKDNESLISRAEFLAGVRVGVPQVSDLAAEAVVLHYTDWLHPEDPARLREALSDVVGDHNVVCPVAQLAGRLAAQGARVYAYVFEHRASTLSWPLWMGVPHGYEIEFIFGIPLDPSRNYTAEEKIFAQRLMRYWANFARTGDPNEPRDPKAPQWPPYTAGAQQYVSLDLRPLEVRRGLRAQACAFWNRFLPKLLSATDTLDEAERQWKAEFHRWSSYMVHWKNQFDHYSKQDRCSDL
Sequence of Cholinesterase (P06276 whole entry): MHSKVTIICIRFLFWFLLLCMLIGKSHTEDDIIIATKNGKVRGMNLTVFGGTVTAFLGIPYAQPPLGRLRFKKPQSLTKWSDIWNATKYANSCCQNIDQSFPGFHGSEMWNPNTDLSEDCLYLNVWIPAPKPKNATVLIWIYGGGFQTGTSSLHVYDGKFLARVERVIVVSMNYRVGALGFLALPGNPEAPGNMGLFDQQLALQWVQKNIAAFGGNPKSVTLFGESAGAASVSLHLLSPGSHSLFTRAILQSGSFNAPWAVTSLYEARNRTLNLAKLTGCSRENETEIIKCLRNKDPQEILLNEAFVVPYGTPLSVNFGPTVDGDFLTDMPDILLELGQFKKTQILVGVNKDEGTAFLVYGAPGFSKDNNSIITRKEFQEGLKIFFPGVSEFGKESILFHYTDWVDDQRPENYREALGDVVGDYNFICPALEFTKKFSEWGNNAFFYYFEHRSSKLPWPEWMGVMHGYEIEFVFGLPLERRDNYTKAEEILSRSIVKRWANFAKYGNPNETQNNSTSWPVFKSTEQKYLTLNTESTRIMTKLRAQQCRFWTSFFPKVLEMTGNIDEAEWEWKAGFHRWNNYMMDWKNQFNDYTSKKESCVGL

SMILES | IC50 [1] [nM] | IC50 [2] [nM] | Activity [3] [%] | IC50 [4] [nM] | inhibition at 0.3 µM [5] [%] | Ki [6] [nM]
CCOC(=O)C1=C(C)Oc2nc3c(c(N)c2C1c1ccncc1)CCCC3 (centres undefined) | 3000 | – | – | – | – | –
CCOC(=O)c1c(C)nc2nc3c(c(N)c2c1-c1ccccc1)CCCC3 | 820 | – | – | – | – | –
CCOC(=O)c1c(C)nc2nc3c(c(N)c2c1-c1ccncc1)CCCC3 | 1400 | – | – | – | – | –
CCOC(=O)C1=C(C)Oc2nc3c(c(N)c2C1c1ccc(OC)cc1)CCCC3 (centres undefined) | 870 | – | – | – | – | –
CC1(C)CC(=O)C2=C(C1)Nc1nc3c(c(N)c1C2c1ccc(F)cc1)CCCC3 (centres undefined) | 540 | 1600 | 95.7 | > 100000 | 32.9 | 106
COc1ccc(C2C3=C(CC(C)(C)CC3=O)Nc3nc4c(c(N)c32)CCCC4)cc1 (centres undefined) | 220 | 370 | 87.8 | > 100000 | 31 | 41.9
CC1(C)CC(=O)C2=C(C1)Nc1nc3c(c(N)c1C2c1ccncc1)CCCC3 (centres undefined) | 600 | 2800 | 82.9 | > 100000 | 45.1 | 157
CC1(C)CC(=O)C2=C(C1)Oc1nc3c(c(N)c1C2c1ccccc1)CCCC3 (centres undefined) | 49000 | – | – | – | – | –
Cc1ccc(C2C3=C(CC(C)(C)CC3=O)Oc3nc4c(c(N)c32)CCCC4)cc1 (centres undefined) | 52000 | – | – | – | – | –
CC1(C)CC(=O)C2=C(C1)Nc1nc3c(c(N)c1C2c1ccccc1)CCCC3 (centres undefined) | 320 | 710 | 87.9 | > 100000 | 24.6 | 61.3
Cc1ccc(C2C3=C(CC(C)(C)CC3=O)Nc3nc4c(c(N)c32)CCCC4)cc1 (centres undefined) | 230 | 670 | 79.9 | > 100000 | 30.9 | 38.9
CC1(C)CC(=O)C2=C(C1)Oc1nc3c(c(N)c1C2c1ccc(F)cc1)CCCC3 (centres undefined) | 70000 | – | – | – | – | –
COc1ccc(C2C3=C(CC(C)(C)CC3=O)Oc3nc4c(c(N)c32)CCCC4)cc1 (centres undefined) | 4100 | – | – | – | – | –
CC[N+](C)(CC)CCC[n+]1c(-c2ccccc2)c2cc(N)ccc2c2ccc(N)cc21 [PROPIDIUM] | – | – | – | – | – | 6800
